What is called IC50 is the concentration needed to halve the response being measured. High values mean weaker potency in that assay, low ones greater potency in that assay.

Some results are limits rather than exact numbers.

The target in experiment [1] is LRRK2 (Homo sapiens (Human), UniProt Q5S007). In words: LRRK2 Kinase Assay. The conditions noted are these: 10 μM ATP. The class given is biochemical. The protocol: Briefly, specific kinase/substrate pairs along with required cofactors were prepared in reaction buffer; 20 mM Hepes (pH 7.5), 10 mM MgCl2, 1 mM EGTA, 0.02% Brij35, 0.02 mg/ml BSA, 0.1 mM Na3VO4, 2 mM DTT, 1% DMSO. Compounds were delivered into the reaction, followed ˜20 min later by addition of a mixture of ATP (Sigma) and 33P ATP (PerkinElmer) to a final concentration of 10 μM. […] IC50 values and curve fits were obtained using Prism (GraphPad Software). Kinome tree representations were prepared using Kinome Mapper (http://www.reactionbiology.com/apps/kinome/mapper/Launch Kinome.htm).
Sequence of LRRK2 (Q5S007 970-2527): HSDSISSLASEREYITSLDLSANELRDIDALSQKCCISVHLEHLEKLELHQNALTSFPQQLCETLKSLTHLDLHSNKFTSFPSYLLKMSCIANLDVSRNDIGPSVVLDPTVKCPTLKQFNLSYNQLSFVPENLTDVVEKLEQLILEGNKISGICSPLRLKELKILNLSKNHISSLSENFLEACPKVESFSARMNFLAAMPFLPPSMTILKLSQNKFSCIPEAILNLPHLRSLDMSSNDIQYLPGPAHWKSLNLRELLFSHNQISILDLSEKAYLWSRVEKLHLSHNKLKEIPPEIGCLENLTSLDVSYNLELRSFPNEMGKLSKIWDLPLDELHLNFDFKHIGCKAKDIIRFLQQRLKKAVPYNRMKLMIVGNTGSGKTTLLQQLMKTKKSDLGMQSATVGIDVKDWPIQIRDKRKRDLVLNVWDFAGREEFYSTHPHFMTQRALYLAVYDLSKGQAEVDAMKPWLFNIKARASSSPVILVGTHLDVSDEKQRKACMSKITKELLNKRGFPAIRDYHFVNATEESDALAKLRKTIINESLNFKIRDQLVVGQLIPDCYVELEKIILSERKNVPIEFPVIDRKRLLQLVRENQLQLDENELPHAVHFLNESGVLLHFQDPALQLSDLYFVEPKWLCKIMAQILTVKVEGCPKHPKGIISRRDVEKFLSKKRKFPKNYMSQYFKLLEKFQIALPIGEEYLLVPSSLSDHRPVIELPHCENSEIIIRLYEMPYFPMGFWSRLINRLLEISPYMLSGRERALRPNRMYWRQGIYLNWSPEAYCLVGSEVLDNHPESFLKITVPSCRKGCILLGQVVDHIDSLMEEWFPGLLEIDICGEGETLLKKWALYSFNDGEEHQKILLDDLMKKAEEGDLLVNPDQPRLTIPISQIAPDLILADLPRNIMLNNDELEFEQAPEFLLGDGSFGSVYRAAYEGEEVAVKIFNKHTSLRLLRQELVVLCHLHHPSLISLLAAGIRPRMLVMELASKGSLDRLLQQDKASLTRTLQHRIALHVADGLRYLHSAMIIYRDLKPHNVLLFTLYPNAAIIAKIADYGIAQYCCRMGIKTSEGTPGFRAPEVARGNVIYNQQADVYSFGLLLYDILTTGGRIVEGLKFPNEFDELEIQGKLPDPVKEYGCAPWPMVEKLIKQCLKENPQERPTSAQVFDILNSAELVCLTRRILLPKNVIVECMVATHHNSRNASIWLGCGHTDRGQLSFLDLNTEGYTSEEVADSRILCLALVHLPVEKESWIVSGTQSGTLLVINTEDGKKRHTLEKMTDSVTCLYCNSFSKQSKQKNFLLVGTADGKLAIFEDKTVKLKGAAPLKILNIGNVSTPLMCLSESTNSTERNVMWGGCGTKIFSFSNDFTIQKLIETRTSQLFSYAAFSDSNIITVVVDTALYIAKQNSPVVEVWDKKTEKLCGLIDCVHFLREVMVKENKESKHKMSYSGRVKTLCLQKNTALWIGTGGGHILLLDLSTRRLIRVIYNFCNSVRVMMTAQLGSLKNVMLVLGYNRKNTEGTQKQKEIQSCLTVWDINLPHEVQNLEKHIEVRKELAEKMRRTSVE
For the wild type LRRK the 2×LRRK2/ERM (LRRKtide) mixture was prepared in 50 mM Tris pH 8.5, 0.01% BRIJ-35, 10 mM MgCl2, 1 mM EGTA, 0.02% NaN3. […] After 1 hour Kinase Reaction incubation, 5 μL of Detection Mix was added.

Experiment [2] addresses LRRK2 G2019S (Homo sapiens (Human), UniProt Q5S007, G2019S). The experiment is described as follows: LRRK2 G2019S Kinase Assay. Format: biochemical. The note with it: 10 μM ATP. The protocol: Procedure: Enzyme was incubated with substrate peptide in reaction buffer in the presence and absence of test compounds or Staurosporine. All additions were done on ice, followed by the addition of ATP mix. Wells were uniformly mixed using an Eppendorff plate shaker and incubated at 30° C. for 20 min, and stopped by the addition of 5 μl of 3% phosphoric acid. Volume was increased to 100 μl by adding 0.8% phosphoric acid which was then transferred to PC filter mats (Millipore), pre-equilibrated with 70% ethanol and water. Plates were washed thrice with 100 μl 0.8% phosphoric acid and dried for an hour at 60° C. 100 μl scintillation fluid was added into each well and reading taken in Perkin Elmer TOPCOUNT beta counter. […] A validation EC50 curve was generated by plotting CPM for each Staurosporine concentration on y-axis against the Log concentration of Staurosporine (nM) on the x-axis followed by a best fit curve through the points.
After 1 hour Kinase Reaction incubation, 5 μL of Detection Mix was added.

Sequence of LRRK2 G2019S (Q5S007 970-2527 G2019S): as the sequence (Q5S007 970-2527) above, with G1050S counted along it

Take `Cc1n[nH]c2ncc(-c3cncnc3NC3CCN(C)CC3)cc12` [Compound 19, 5-(3methyl-1H-pyrazolo[3,4-b]pyridine-5yl)-N-(1-methylpiperidine-4yl)pyrimidin-4-amine]: the IC50 in experiment [1] and in experiment [2] was above 0.5 µM throughout.

For `Cc1n[nH]c2ncc(NC3CCCN(Cc4ccc(F)c(F)c4)C3)cc12` (centres unmarked) [Compound 26], the IC50 in experiment [1] and in experiment [2] was above 0.5 µM each time.

As to `Cc1n[nH]c2ncc(-c3cncc(Cl)n3)cc12` [Compound 42, 5-(6-chloropyrazin-2-yl)-3-methyl-1H-pyrazolo[3,4-b]pyridine], the IC50 in experiment [1] and in experiment [2] was above 1 µM throughout.

Take `Cc1n[nH]c2ncc(-c3cnccn3)cc12` [Compound 45, 3-methyl-5-(pyrazin-2-yl)-1H-pyrazolo[3,4-b]pyridine]: the IC50 in experiment [1] and in experiment [2] was above 1 µM each time.

For the molecule `Cc1n[nH]c2ncc(-c3nccnc3N3CCCC3)cc12` [Compound 74, 3-methyl-5-(3-(pyrrolidin-1-yl)pyrazin-2-yl)-1H-pyrazolo[3,4-b]pyridine], the IC50 in experiment [1] and in experiment [2] was above 1 µM throughout.

On to `Cc1n[nH]c2ncc(-c3cccc(S(=O)(=O)N(C)C)c3)cc12` [Compound 111, N, N-dimethyl-3-(3-methyl-1H-pyrazolo[3,4-b]pyridin-5-yl)benzenesulfonamide], for which the IC50 in experiment [1] and in experiment [2] was above 1 µM each time.

Consider `CC(=O)Nc1cccc(-c2cnc3[nH]nc(C)c3c2)c1` [Compound 114, N-(3-(3-methyl-1H-pyrazolo[3,4-b]pyridin-5-yl)phenyl)acetamide], for which the IC50 in experiment [1] and in experiment [2] was above 1 µM in each case.

With `Cn1cc(-c2cnc3[nH]ncc3c2)cn1` [Compound 117, 5-(1-methyl-1H-pyrazol-4-yl)-1H-pyrazolo[3,4-b]pyridine], the IC50 in experiment [1] and in experiment [2] was above 1 µM in each case.

Take `CCOC(=O)c1cccc(-c2cnc3[nH]nc(C)c3c2)c1` [Compound 119, ethyl 3-(3-methyl-1H-pyrazolo[3,4-b]pyridin-5-yl)benzoate]: the IC50 in experiment [1] and in experiment [2] was above 1 µM each time.

Consider `Cc1n[nH]c2ncc(-c3cccc(CN4CCN(C)CC4)c3)cc12` [Compound 123, 3-methyl-5-(3-((4-methylpiperazin-1-yl)methyl)phenyl)-1H-pyrazolo[3,4-b]pyridine], for which the IC50 in experiment [1] and in experiment [2] was above 1 µM in each case.

Turning to `CN1CC(Nc2cncc(-c3cnc4[nH]ccc4c3)n2)C1` [Compound 130, N-(1-methylazetidin-3-yl)-6-(1H-pyrrolo[2,3-b]pyridin-5-yl)pyrazin-2-amine], the half-maximal inhibitory concentration (IC50) in experiment [1] and in experiment [2] was above 0.5 µM throughout.

For the molecule `O=C1CN(c2cncc(-c3cnc4[nH]ccc4c3)n2)CCN1` [Compound 133, 4-(6-(1H-pyrrolo[2,3-b]pyridin-5-yl)pyrazin-2-yl)piperazin-2-one], the IC50 in experiment [1] and in experiment [2] was above 0.5 µM each time.

Consider `O=C(c1cncc(-c2cnc3[nH]ccc3c2)n1)N1CCCCC1` [Compound 138, (6-(1H-pyrrolo[2,3-b]pyridin-5-yl)pyrazin-2-yl)(piperidin-1-yl)methanone], for which the IC50 in experiment [1] and in experiment [2] was above 0.5 µM throughout.

As for `CN1CCN(C(=O)c2cncc(-c3cnc4[nH]ccc4c3)n2)CC1` [Compound 139, (6-(1H-pyrrolo[2,3-b]pyridin-5-yl)pyrazin-2-yl)(4-methylpiperazin-1-yl)methanone], the half-maximal inhibitory concentration (IC50) in experiment [1] and in experiment [2] was above 1 µM each time.

`CN1CCC(Nc2cncc(-c3cnc4[nH]ccc4c3)n2)CC1` [Compound 140, N-(1-methylpiperidin-4-yl)-6-(1H-pyrrolo[2,3-b]pyridin-5-yl)pyrazin-2-amine]: the IC50 in experiment [1] and in experiment [2] was below 0.5 µM each time.

`CN1CCC(Nc2cncc(-c3cnc4[nH]cc(Cl)c4c3)n2)CC1` [Compound 141, 6-(3-chloro-1H-pyrrolo[2,3-b]pyridin-5-yl)-N-(1-methylpiperidin-4-yl)pyrazin-2-amine]: the IC50 in experiment [1] and in experiment [2] was below 0.5 µM throughout.

These data come from patent publication US9669028B2, “Substituted 5-(pyrazin-2-yl)-1H-pyrazolo [3, 4-B] pyridine and pyrazolo [3, 4-B] pyridine derivatives as protein kinase inhibitors” (Arrien Pharmaceuticals LLC, priority 2011, dated 2017).
